Assay results: patent US20250000843A1, “LIGNAN-INSPIRED COMPOUNDS, METHODS OF MAKING, AND USING THEREOF” (IOWAIBO, INC., priority 2023, published 2025)
pIC50: −log10 of the molar value.

Columns and labels:
[1] = tested on: PC3, a human prostate cancer cell line; experiment: MTT toxicity assay in PC3 prostate cancer cells; type: cell-based
Protocol: Toxicity of the dibenzyl butyl lactone derivative (3-[(3,4-dimethoxyphenyl)cyclopentyl], 4-[(3-hydroxyphenol)methyl]oxolan-2-one) in breast cancer cells was evaluated using MTT assay. The MTT toxicity test is a colorimetric assay to measure cells' metabolic activity by serving as a substrate of cellular enzymes that reduce the tetrazolium orange dye, MTT (3-(4,5-Dimethylthiazol-2-yl)-2,5-diphenyltetrazolium bromide) to its insoluble, formazan, giving a purple color. The rate of conversion is directly proportional to cells' mitochondrial metabolic activity via NAD (P) H-dependent cellular oxidoreductase enzymes and serves as a surrogate marker of cell viability.
Cells previously expanded were seeded in 96 well plates at 1.9×10^5 and 9.6×10^4 cells/plate for 24- and 72-hours treatment respectively. This concentration is known to show the best window for the MTT assay, with better sensitivity and low variability.
5 mg of powdered enterolactone, dibenzyl butyl lactone derivative enantiomer A, and dibenzyl butyl lactone derivative enantiomer B were dissolved in 500 μl of DMSO at room temperature. Eight-point curves, ⅓ dilutions (highest concentration 125 μM), were prepared.
Twenty-four hours following the seeding process, the cells were washed once with phosphate buffered saline (PBS) and treated with the respective compounds in cell culture media. Each condition was tested in triplicates. For positive and negative controls, 8 mM methyl methane sulfonate (MMS) and DMSO 100% were used respectively.
Following compound addition, the plates were incubated for 24 and 72 hours. After the treatment period, cells were washed twice with PBS and media was replaced with MTT reagent at 0.5 mg/ml in Dulbecco's modified Eagle medium (DMEM) without phenol red. The plates were gently shaken and incubated for 4 hours. After the incubation the medium was removed and replaced by DMSO. The plates were gently shaken to solubilize the formazan crystals. Absorbance was measured using an Envision multiplate reader at a wavelength of 570 nm.
Toxicity of the dibenzyl butyl lactone derivative (3-[(3,4-dimethoxyphenyl)cyclopentyl], 4-[(3-hydroxyphenol)methyl]oxolan-2-one) in prostate cancer cells was evaluated using MTT assay. The same methods as those used in Example 2 were employed, except the cell line used was PC3, a human prostate cancer cell line, and cell cultures were established in Kaighn's modification of Ham's […] medium.
MTT assay results are shown in Tables 16-21 and expressed as the percentage of cell death after treatment.

telomerase = telomerase (Homo sapiens, UniProt O14746); experiment: Q-TRAP telomerase activity in MCF7 breast cancer cells; type: cell-based; parameters: allow the enzymatic addition of telomeric DNA repeats by endogenous telomerase; endogenous in cells
Sequence of telomerase (O14746 whole entry): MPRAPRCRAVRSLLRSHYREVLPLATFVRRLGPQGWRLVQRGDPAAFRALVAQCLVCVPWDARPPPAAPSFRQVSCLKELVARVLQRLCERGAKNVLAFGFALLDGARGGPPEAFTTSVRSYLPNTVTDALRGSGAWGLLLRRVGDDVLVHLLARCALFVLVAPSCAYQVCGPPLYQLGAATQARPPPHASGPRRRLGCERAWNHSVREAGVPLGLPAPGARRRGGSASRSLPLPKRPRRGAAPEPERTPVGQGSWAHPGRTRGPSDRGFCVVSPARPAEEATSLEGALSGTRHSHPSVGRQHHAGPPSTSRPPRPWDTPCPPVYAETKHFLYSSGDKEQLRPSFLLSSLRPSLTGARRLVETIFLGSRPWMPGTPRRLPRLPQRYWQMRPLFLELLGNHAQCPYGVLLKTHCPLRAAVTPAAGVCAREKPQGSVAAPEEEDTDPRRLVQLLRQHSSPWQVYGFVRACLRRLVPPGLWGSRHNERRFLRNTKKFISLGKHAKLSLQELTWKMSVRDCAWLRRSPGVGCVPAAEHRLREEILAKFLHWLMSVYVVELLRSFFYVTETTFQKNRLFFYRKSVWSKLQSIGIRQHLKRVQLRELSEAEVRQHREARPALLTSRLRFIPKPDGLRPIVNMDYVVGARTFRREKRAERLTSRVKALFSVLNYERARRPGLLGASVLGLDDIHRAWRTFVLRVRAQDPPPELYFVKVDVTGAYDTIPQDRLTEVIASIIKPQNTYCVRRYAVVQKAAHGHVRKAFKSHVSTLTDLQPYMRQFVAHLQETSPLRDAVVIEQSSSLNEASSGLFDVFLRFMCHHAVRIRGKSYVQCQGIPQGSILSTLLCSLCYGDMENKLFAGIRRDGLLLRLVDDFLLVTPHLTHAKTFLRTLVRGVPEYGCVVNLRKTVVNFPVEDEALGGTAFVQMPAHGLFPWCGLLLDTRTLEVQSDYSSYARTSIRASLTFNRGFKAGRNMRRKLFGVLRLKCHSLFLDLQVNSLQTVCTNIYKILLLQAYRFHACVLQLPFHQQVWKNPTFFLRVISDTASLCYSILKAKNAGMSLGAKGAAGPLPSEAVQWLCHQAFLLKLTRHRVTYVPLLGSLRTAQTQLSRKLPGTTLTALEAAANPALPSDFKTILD
Sequence of telomerase (O60832 whole entry partner): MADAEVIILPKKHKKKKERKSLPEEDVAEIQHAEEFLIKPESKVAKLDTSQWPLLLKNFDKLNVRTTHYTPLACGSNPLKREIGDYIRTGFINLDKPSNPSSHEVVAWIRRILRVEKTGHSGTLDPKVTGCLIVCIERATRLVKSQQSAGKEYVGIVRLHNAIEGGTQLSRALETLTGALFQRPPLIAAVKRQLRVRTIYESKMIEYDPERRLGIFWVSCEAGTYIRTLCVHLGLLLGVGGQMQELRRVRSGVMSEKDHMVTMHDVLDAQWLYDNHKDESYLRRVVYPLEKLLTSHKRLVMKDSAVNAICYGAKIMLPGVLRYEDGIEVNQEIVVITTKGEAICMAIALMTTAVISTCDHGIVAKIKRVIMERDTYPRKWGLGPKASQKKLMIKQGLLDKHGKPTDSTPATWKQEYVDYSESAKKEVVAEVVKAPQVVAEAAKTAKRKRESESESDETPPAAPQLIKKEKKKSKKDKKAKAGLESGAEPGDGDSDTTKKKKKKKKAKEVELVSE
Sequence of telomerase (Q9NPE3 whole entry partner): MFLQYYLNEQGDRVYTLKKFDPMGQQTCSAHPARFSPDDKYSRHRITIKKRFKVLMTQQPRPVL
Sequence of telomerase (Q9NX24 whole entry partner): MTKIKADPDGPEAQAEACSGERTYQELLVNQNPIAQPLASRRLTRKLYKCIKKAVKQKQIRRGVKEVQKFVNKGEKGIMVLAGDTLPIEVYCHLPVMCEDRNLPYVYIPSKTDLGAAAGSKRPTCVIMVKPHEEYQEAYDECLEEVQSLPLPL
Sequence of telomerase (Q9NY12 whole entry partner): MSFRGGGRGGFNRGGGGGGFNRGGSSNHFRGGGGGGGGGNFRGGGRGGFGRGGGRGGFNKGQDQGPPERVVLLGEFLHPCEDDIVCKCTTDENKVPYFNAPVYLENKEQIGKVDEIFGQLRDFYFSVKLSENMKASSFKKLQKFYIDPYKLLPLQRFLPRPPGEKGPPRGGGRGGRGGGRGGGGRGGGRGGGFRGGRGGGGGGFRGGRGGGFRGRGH
Sequence of telomerase (Q9BUR4 whole entry partner): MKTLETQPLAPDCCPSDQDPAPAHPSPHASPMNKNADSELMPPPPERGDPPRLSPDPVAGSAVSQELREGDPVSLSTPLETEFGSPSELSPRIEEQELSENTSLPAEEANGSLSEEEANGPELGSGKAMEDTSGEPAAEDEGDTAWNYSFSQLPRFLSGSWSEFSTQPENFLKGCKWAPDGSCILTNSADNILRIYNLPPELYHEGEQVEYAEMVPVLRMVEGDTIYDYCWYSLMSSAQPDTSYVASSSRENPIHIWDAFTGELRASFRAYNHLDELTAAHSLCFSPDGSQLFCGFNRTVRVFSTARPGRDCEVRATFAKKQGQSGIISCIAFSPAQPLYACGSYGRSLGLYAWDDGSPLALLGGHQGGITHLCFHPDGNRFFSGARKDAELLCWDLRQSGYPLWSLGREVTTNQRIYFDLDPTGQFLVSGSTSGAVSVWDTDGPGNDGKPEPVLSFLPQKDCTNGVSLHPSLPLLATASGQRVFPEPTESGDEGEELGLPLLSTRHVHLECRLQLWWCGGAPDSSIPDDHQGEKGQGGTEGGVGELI

O=C1OCC(Cc2ccc3c(c2)OCO3)/C1=C\c1cccc(O)c1 (single isomer, unassigned) [Enantiomer B, 3-[(3,4-dimethoxyphenyl)cyclopentyl], 4-[(3-hydroxyphenol)methyl]oxolan-2-one]
Cell death #1 (%) ([1]; PC3, 24 hours, 0.06 μM): −14.60%
Cell death #2 (%) ([1]; PC3, 24 hours, 0.06 μM): −12.15%
Cell death #3 (%) ([1]; PC3, 24 hours, 0.06 μM): −1.24%
Cell death (%) MEAN ([1]; PC3, 24 hours, 0.06 μM): −9.33%
Cell death #1 (%) ([1]; PC3, 24 hours, 0.17 μM): −22.81%
Cell death #2 (%) ([1]; PC3, 24 hours, 0.17 μM): −20.24%
Cell death #3 (%) ([1]; PC3, 24 hours, 0.17 μM): −14.35%
Cell death (%) MEAN ([1]; PC3, 24 hours, 0.17 μM): −19.13%
Cell death #1 (%) ([1]; PC3, 24 hours, 0.51 μM): −15.09%
Cell death #2 (%) ([1]; PC3, 24 hours, 0.51 μM): −34.33%
Cell death #3 (%) ([1]; PC3, 24 hours, 0.51 μM): −34.94%
Cell death (%) MEAN ([1]; PC3, 24 hours, 0.51 μM): −28.12%
Cell death #1 (%) ([1]; PC3, 24 hours, 1.54 μM): −58.35%
Cell death #2 (%) ([1]; PC3, 24 hours, 1.54 μM): −51.85%
Cell death #3 (%) ([1]; PC3, 24 hours, 1.54 μM): −43.77%
Cell death (%) MEAN ([1]; PC3, 24 hours, 1.54 μM): −51.32%
Cell death #1 (%) ([1]; PC3, 24 hours, 4.63 μM): −72.93%
Cell death #2 (%) ([1]; PC3, 24 hours, 4.63 μM): −63.74%
Cell death #3 (%) ([1]; PC3, 24 hours, 4.63 μM): −39.60%
Cell death (%) MEAN ([1]; PC3, 24 hours, 4.63 μM): −58.76%
Cell death #1 (%) ([1]; PC3, 24 hours, 13.89 μM): −71.22%
Cell death #2 (%) ([1]; PC3, 24 hours, 13.89 μM): −63.50%
Cell death #3 (%) ([1]; PC3, 24 hours, 13.89 μM): −63.74%
Cell death (%) MEAN ([1]; PC3, 24 hours, 13.89 μM): −66.15%
Cell death #1 (%) ([1]; PC3, 24 hours, 41.67 μM): −68.77%
Cell death #2 (%) ([1]; PC3, 24 hours, 41.67 μM): −35.80%
Cell death #3 (%) ([1]; PC3, 24 hours, 41.67 μM): −33.35%
Cell death (%) MEAN ([1]; PC3, 24 hours, 41.67 μM): −45.97%
Cell death #1 (%) ([1]; PC3, 24 hours, 125.00 μM): 6.23%
Cell death #2 (%) ([1]; PC3, 24 hours, 125.00 μM): 3.54%
Cell death #3 (%) ([1]; PC3, 24 hours, 125.00 μM): 4.64%
Cell death (%) MEAN ([1]; PC3, 24 hours, 125.00 μM): 4.80%
Cell death #1 (%) ([1]; PC3, 72 hours, 0.06 μM): −22.56%
Cell death #2 (%) ([1]; PC3, 72 hours, 0.06 μM): −30.41%
Cell death #3 (%) ([1]; PC3, 72 hours, 0.06 μM): −23.49%
Cell death (%) MEAN ([1]; PC3, 72 hours, 0.06 μM): −25.49%
Cell death #1 (%) ([1]; PC3, 72 hours, 0.17 μM): −33.20%
Cell death #2 (%) ([1]; PC3, 72 hours, 0.17 μM): −39.41%
Cell death #3 (%) ([1]; PC3, 72 hours, 0.17 μM): −29.79%
Cell death (%) MEAN ([1]; PC3, 72 hours, 0.17 μM): −34.13%
Cell death #1 (%) ([1]; PC3, 72 hours, 0.51 μM): −47.57%
Cell death #2 (%) ([1]; PC3, 72 hours, 0.51 μM): −52.84%
Cell death #3 (%) ([1]; PC3, 72 hours, 0.51 μM): −52.74%
Cell death (%) MEAN ([1]; PC3, 72 hours, 0.51 μM): −51.05%
Cell death #1 (%) ([1]; PC3, 72 hours, 1.54 μM): −52.64%
Cell death #2 (%) ([1]; PC3, 72 hours, 1.54 μM): −40.34%
Cell death #3 (%) ([1]; PC3, 72 hours, 1.54 μM): −51.19%
Cell death (%) MEAN ([1]; PC3, 72 hours, 1.54 μM): −48.05%
Cell death #1 (%) ([1]; PC3, 72 hours, 4.63 μM): −45.81%
Cell death #2 (%) ([1]; PC3, 72 hours, 4.63 μM): −40.03%
Cell death #3 (%) ([1]; PC3, 72 hours, 4.63 μM): −52.74%
Cell death (%) MEAN ([1]; PC3, 72 hours, 4.63 μM): −46.19%
Cell death #1 (%) ([1]; PC3, 72 hours, 13.89 μM): −33.31%
Cell death #2 (%) ([1]; PC3, 72 hours, 13.89 μM): −22.56%
Cell death #3 (%) ([1]; PC3, 72 hours, 13.89 μM): −34.75%
Cell death (%) MEAN ([1]; PC3, 72 hours, 13.89 μM): −30.21%
Cell death #1 (%) ([1]; PC3, 72 hours, 41.67 μM): 11.03%
Cell death #2 (%) ([1]; PC3, 72 hours, 41.67 μM): 11.96%
Cell death #3 (%) ([1]; PC3, 72 hours, 41.67 μM): 14.65%
Cell death (%) MEAN ([1]; PC3, 72 hours, 41.67 μM): 12.55%
Cell death #1 (%) ([1]; PC3, 72 hours, 125.00 μM): 64.88%
Cell death #2 (%) ([1]; PC3, 72 hours, 125.00 μM): 61.78%
Cell death #3 (%) ([1]; PC3, 72 hours, 125.00 μM): 57.24%
Cell death (%) MEAN ([1]; PC3, 72 hours, 125.00 μM): 61.30%
prostate cancer cell death as compared to enterolactone ([1]; PC3, at higher concentrations, 24 hours and 72 hours post-treatment): increased prostate cancer cell death as compared to enterolactone
Telomerase Activity RTA (%) (telomerase; MCF7, 2.5 μM, 24 Hours): 47.79%
Telomerase Activity RTA (%) (telomerase; MCF7, 2.5 μM, 48 Hours): 23.71%
Telomerase Activity RTA (%) (telomerase; MCF7, 2.5 μM, 72 Hours): 15.49%
Telomerase Activity RTA (%) (telomerase; MCF7, 5 μM, 24 Hours): 48.30%
Telomerase Activity RTA (%) (telomerase; MCF7, 5 μM, 48 Hours): 31.70%
Telomerase Activity RTA (%) (telomerase; MCF7, 5 μM, 72 Hours): 14.68%
Telomerase Activity RTA (%) (telomerase; MCF7, 10 μM, 24 Hours): 59.90%
Telomerase Activity RTA (%) (telomerase; MCF7, 10 μM, 48 Hours): 32.76%
Telomerase Activity RTA (%) (telomerase; MCF7, 10 μM, 72 Hours): 16.26%
Telomerase Activity RTA (%) (telomerase; MCF7, 20 μM, 24 Hours): 44.48%
Telomerase Activity RTA (%) (telomerase; MCF7, 20 μM, 48 Hours): 44.82%
Telomerase Activity RTA (%) (telomerase; MCF7, 20 μM, 72 Hours): 16.69%
Telomerase Activity RTA (%) (telomerase; MCF7, 40 μM, 24 Hours): 53.63%
Telomerase Activity RTA (%) (telomerase; MCF7, 40 μM, 48 Hours): 26.82%
Telomerase Activity RTA (%) (telomerase; MCF7, 40 μM, 72 Hours): 10.17%
pIC50 (telomerase; MCF7, 24 h): < 4.40
telomerase activity levels of treated groups compared to control (telomerase; MCF7, 24 hours): lower telomerase activity levels compared to control
Significance of RTA difference vs. control (telomerase; MCF7, 24 hours, 5 μM): YES (*)
Significance of RTA difference vs. control (telomerase; MCF7, 24 hours, 10 μM): YES (*)
Significance of RTA difference vs. control (telomerase; MCF7, 24 hours, 20 μM): YES (*)
Significance of RTA difference vs. control (telomerase; MCF7, 24 hours, 40 μM): YES (*)
pIC50 (telomerase; MCF7, 48 h): 5.29
telomerase activity levels of treated groups compared to control (telomerase; MCF7, 48 hours): lower telomerase activity levels compared to control, even more pronounced than 24 hours
Significance of RTA difference vs. control (telomerase; MCF7, 48 hours, 2.5 μM): YES (*)
Significance of RTA difference vs. control (telomerase; MCF7, 48 hours, 10 μM): YES (*)
Significance of RTA difference vs. control (telomerase; MCF7, 48 hours, 40 μM): YES (*)
pIC50 (telomerase; MCF7, 72 h): < 4.40
telomerase activity levels of treated groups compared to control (telomerase; MCF7, 72 hours): the group treated with the highest concentration presented lower RTA levels
Significance of RTA difference vs. control (telomerase; MCF7, 72 hours, 2.5 μM): YES (*)
telomerase inhibition effect (telomerase; MCF7 breast cancer cells): exhibit a telomerase inhibition effect
